From the CheMixHub viscosity set

Assay: xn = mol fraction of the nth substance listed

COCCOCCO + ClC=C(Cl)Cl
298.15 K, 101.33 kPa
Conditions | viscosity [mPa·s]
x1 = 0.0091 | 0.537
x1 = 0.0258 | 0.553
x1 = 0.0362 | 0.567
x1 = 0.0477 | 0.582
x1 = 0.0679 | 0.61
x1 = 0.0896 | 0.643
x1 = 0.1146 | 0.685
x1 = 0.1489 | 0.742
x1 = 0.187 | 0.817
x1 = 0.2425 | 0.926
x1 = 0.2811 | 1.009
x1 = 0.3123 | 1.082
x1 = 0.3733 | 1.237
x1 = 0.4192 | 1.356
x1 = 0.4582 | 1.467
x1 = 0.4988 | 1.587
x1 = 0.541 | 1.725
x1 = 0.5789 | 1.849
x1 = 0.608 | 1.948
x1 = 0.6351 | 2.044
x1 = 0.6756 | 2.194
x1 = 0.7372 | 2.433
x1 = 0.7781 | 2.596
x1 = 0.811 | 2.73
x1 = 0.8467 | 2.882
x1 = 0.8774 | 3.015
x1 = 0.9167 | 3.194
x1 = 0.9481 | 3.329
x1 = 0.9733 | 3.449
x2 = 0.0104 | 3.531

CC(C)[C@@H]1CC[C@@H](C)C[C@H]1O + CCCO
Conditions | viscosity [mPa·s]
298.15 K, 101.33 kPa, x1 = 0.5 | 28.39

CCCCCCCCCCO + CCCCCCO
viscosity [mPa·s], 101.8 kPa
Conditions | x2 = 0.1493 | x2 = 0.3989 | x2 = 0.6071 | x2 = 0.7831 | x2 = 0.9346
298.15 K | 10.38 | 8.464 | 7.01 | 5.822 | 4.905
308.15 K | 7.307 | 6.019 | 5.068 | 4.271 | 3.643
318.15 K | 5.25 | 4.393 | 3.745 | 3.191 | 2.75

CCCCC(CC)COC(=O)c1ccc(C(=O)OCC(CC)CCCC)c(C(=O)OCC(CC)CCCC)c1 (centres undefined) + O
101 kPa
Conditions | viscosity [mPa·s]
303.14 K, x2 = 0.019 | 151.1
303.15 K, x2 = 0.0111 | 152.7
303.15 K, x2 = 0.0169 | 151.2
303.16 K, x2 = 0.00366 | 153.9
303.16 K, x2 = 0.00372 | 153.9
303.16 K, x2 = 0.00843 | 153.1
303.16 K, x2 = 0.0124 | 152.2
303.16 K, x2 = 0.0155 | 151.6
303.16 K, x2 = 0.0164 | 151.4

CCCCCCCCCCO + C1CCCCC1
Conditions | viscosity [mPa·s]
293.15 K, 100 kPa, x2 = 0.0822 | 12.17
293.15 K, 100 kPa, x2 = 0.1602 | 10.37
293.15 K, 100 kPa, x2 = 0.2397 | 8.74
293.15 K, 100 kPa, x2 = 0.3476 | 6.8
293.15 K, 100 kPa, x2 = 0.4402 | 5.45
293.15 K, 100 kPa, x2 = 0.5604 | 3.92
293.15 K, 100 kPa, x2 = 0.6506 | 2.95
293.15 K, 100 kPa, x2 = 0.7397 | 2.18
293.15 K, 100 kPa, x2 = 0.8508 | 1.48
293.15 K, 100 kPa, x2 = 0.94 | 1.1
303.15 K, 100 kPa, x2 = 0.0822 | 8.4
303.15 K, 100 kPa, x2 = 0.1602 | 7.28
303.15 K, 100 kPa, x2 = 0.2397 | 6.22
303.15 K, 100 kPa, x2 = 0.3476 | 4.96
303.15 K, 100 kPa, x2 = 0.4402 | 4.02
303.15 K, 100 kPa, x2 = 0.5604 | 2.97
303.15 K, 100 kPa, x2 = 0.6506 | 2.31
303.15 K, 100 kPa, x2 = 0.7397 | 1.77
303.15 K, 100 kPa, x2 = 0.8508 | 1.29
303.15 K, 100 kPa, x2 = 0.94 | 0.98
303.15 K, 101.33 kPa, x1 = 0.1009 | 1.08
303.15 K, 101.33 kPa, x1 = 0.1983 | 1.404
303.15 K, 101.33 kPa, x1 = 0.2985 | 1.829
303.15 K, 101.33 kPa, x1 = 0.3954 | 2.357
303.15 K, 101.33 kPa, x1 = 0.5 | 3.076
303.15 K, 101.33 kPa, x1 = 0.5845 | 3.781
303.15 K, 101.33 kPa, x1 = 0.6939 | 4.863
303.15 K, 101.33 kPa, x1 = 0.7949 | 6.023
303.15 K, 101.33 kPa, x1 = 0.8949 | 7.33
308 K, 101 kPa, x2 = 0.0801 | 6.912
308 K, 101 kPa, x2 = 0.2421 | 5.397
308 K, 101 kPa, x2 = 0.3455 | 4.468
308 K, 101 kPa, x2 = 0.4703 | 3.396
308 K, 101 kPa, x2 = 0.5762 | 2.579
308 K, 101 kPa, x2 = 0.6347 | 2.14
308 K, 101 kPa, x2 = 0.7203 | 1.702
308 K, 101 kPa, x2 = 0.8752 | 1.061
308 K, 101 kPa, x2 = 0.9408 | 0.86
313.15 K, 100 kPa, x2 = 0.0822 | 5.95
313.15 K, 100 kPa, x2 = 0.1602 | 5.22
313.15 K, 100 kPa, x2 = 0.2397 | 4.53
313.15 K, 100 kPa, x2 = 0.3476 | 3.69
313.15 K, 100 kPa, x2 = 0.4402 | 3.04
313.15 K, 100 kPa, x2 = 0.5604 | 2.29
313.15 K, 100 kPa, x2 = 0.6506 | 1.82
313.15 K, 100 kPa, x2 = 0.7397 | 1.43
313.15 K, 100 kPa, x2 = 0.8508 | 1.05
313.15 K, 100 kPa, x2 = 0.94 | 0.81
323.15 K, 100 kPa, x2 = 0.0822 | 4.35
323.15 K, 100 kPa, x2 = 0.1602 | 3.85
323.15 K, 100 kPa, x2 = 0.2397 | 3.36
323.15 K, 100 kPa, x2 = 0.3476 | 2.78
323.15 K, 100 kPa, x2 = 0.4402 | 2.35
323.15 K, 100 kPa, x2 = 0.5604 | 1.84
323.15 K, 100 kPa, x2 = 0.6506 | 1.51
323.15 K, 100 kPa, x2 = 0.7397 | 1.22
323.15 K, 100 kPa, x2 = 0.8508 | 0.91
323.15 K, 100 kPa, x2 = 0.94 | 0.71

CCC#N + CC(C)(C)O
viscosity [mPa·s], 101 kPa
Conditions | x2 = 0.0744 | x2 = 0.1541 | x2 = 0.2403 | x2 = 0.3272 | x2 = 0.4258 | x2 = 0.5242 | x2 = 0.6146 | x2 = 0.7448 | x2 = 0.8667
298.15 K | 0.4226 | 0.4462 | 0.4934 | 0.5641 | 0.6672 | 0.8059 | 1.024 | 1.526 | 2.346
303.15 K | 0.4138 | 0.4431 | 0.487 | 0.5397 | 0.6276 | 0.739 | 0.9208 | 1.34 | 2.022
308.15 K | 0.3997 | 0.4317 | 0.4754 | 0.5219 | 0.5918 | 0.6821 | 0.8394 | 1.186 | 1.741

OCCN(CCO)CCO + CN1CCCC1=O
viscosity [mPa·s], 101 kPa
Conditions | x2 = 0.0728 | x2 = 0.1508 | x2 = 0.2354 | x2 = 0.3199 | x2 = 0.4141 | x2 = 0.5135 | x2 = 0.6225 | x2 = 0.7384 | x2 = 0.863
293.15 K | 572.9 | 337.4 | 162.4 | 84.29 | 43.36 | 22.93 | 11.2 | 6.152 | 3.354
303.15 K | 255.2 | 159.4 | 84.21 | 47.61 | 27.51 | 14.93 | 8.012 | 4.62 | 2.747
313.15 K | 123.8 | 77.19 | 47.61 | 28.9 | 16.82 | 10.34 | 5.907 | 3.554 | 1.892
323.15 K | 56.97 | 40.67 | 29.54 | 18.75 | 11.33 | 7.604 | 4.552 | 2.766 | 1.497

c1cc[nH]c1 + c1ccccc1
viscosity [mPa·s], 101 kPa
Conditions | x1 = 0.05439 | x1 = 0.06772 | x1 = 0.1099
303.15 K | 0.576 | 0.579 | 0.59
323.15 K | 0.445 | 0.452 | 0.459

CCCCCCCCCCO + Cc1ccc(C)cc1
viscosity [mPa·s], 101 kPa
Conditions | 298.15 K | 308.15 K
x2 = 0.0806 | 9.447 | 6.565
x2 = 0.1731 | 7.145 | 5.045
x2 = 0.2506 | 5.591 | 4.011
x2 = 0.3197 | 4.463 | 3.242
x2 = 0.3693 | 3.779 | 2.781
x2 = 0.4336 | 3.053 | 2.275
x2 = 0.4929 | 2.512 | 1.9
x2 = 0.5771 | 1.908 | 1.481
x2 = 0.662 | 1.456 | 1.153
x2 = 0.7265 | 1.2 | 0.963
x2 = 0.7763 | 1.04 | 0.845
x2 = 0.8293 | 0.9 | 0.744
x2 = 0.8891 | 0.776 | 0.648
x2 = 0.9369 | 0.693 | 0.59

CCCCCCCCCCO + CCCCCCCC
298.15 K, 101.3 kPa
Conditions | viscosity [mPa·s]
x1 = 0.0592 | 0.601
x1 = 0.11 | 0.678
x1 = 0.1555 | 0.769
x1 = 0.2012 | 0.876
x1 = 0.2553 | 1.032
x1 = 0.303 | 1.194
x1 = 0.4085 | 1.665
x1 = 0.5085 | 2.311
x1 = 0.6109 | 3.244
x1 = 0.7126 | 4.541
x1 = 0.7879 | 5.827
x1 = 0.8535 | 7.233
x1 = 0.9129 | 8.795
x1 = 0.9391 | 9.583
